# Legend:
# [1] = test system: Pseudomonas aeruginosa PS18; format: cell-based; details: PS18, 24 h
# [2] = test system: Clostridium perfringens 81; assay: microbe, parasite or virus in culture; format: cell-based; details: Clostridium perfringens, 81, 24 h
# [3] = test system: Pseudomonas aeruginosa X239; format: cell-based; details: X239, 24 h
# blowfly larvae = assay: insecticide test
# Description: (§1) The A82810 compounds are also useful as insecticides. For example, A82810 is active against southern armyworm, spider mite and blowfly larvae at levels as low as 100 ppm and against adult stablefly at levels as low as 50 ppm.
# southern armyworm = assay: insecticide test
# Description: as §1
# spider mite = assay: insecticide test
# Description: as §1
# adult stablefly = assay: insecticide test
# Description: as §1
# [4] = test system: Propionibacterium acnes 79; format: cell-based; details: Cutibacterium acnes, 79, 24 h
# [5] = test system: Streptococcus pyogenes C203; format: cell-based; details: C203, 24 h
# [6] = test system: Bacteroides corrodens 1874; format: cell-based; details: Eikenella corrodens, 1874, 24 h
# Bacteroides fragilis 111 = format: cell-based; details: Bacteroides fragilis, 111, 24 h
# [7] = test system: Fusobacterium symbiosum 1470; format: cell-based; details: Fusobacterium, 1470, 24 h
# [8] = test system: Peptostreptococcus intermedius 1624; format: cell-based; details: Peptostreptococcus, 1624, 24 h
# [9] = test system: Pseudomonas aeruginosa PS72; format: cell-based; details: PS72, 24 h
# [10] = test system: Staphylococcus aureus X1.1; format: cell-based; details: X1.1, 24 h
# [11] = effect on growth of uninfected chicks; format: in vivo; details: Table XXI, Compound ppm r3-r7: 0,8,10,12,14
# Description: Newly hatched chickens are raised in a coccidial-free environment for a seven-day period. On the morning of the eighth day, the chickens are weighed and assigned to treatment groups.
# Each group of chicks (usually 4 or 5 chicks per group) is housed in a battery cage during the experiment. A constant lighting schedule and ad libitum access to feed (each experiment contains non-medicated and drug-medicated treatments) and water are provided for the chicks in each battery. Two days after the experiment is initiated, chicks that are designated to be infected are crop-intubated with a pure suspension of coccidial oocysts. The oocyst dosage used in each test is designed to produce clinical coccidiosis in infected nonmedicated animals.
# After an additional seven-day growth period, the experiment is terminated. Each group of chicks is weighed, and the amount of feed consumed by each group is determined. From these measurements, final bird weights and efficiency of feed utilization are calculated. All birds are then sacrificed, and the intestine. and cecum are examined for the presence of coccidial-induced lesions.
# [12] = test system: Eimeria acervulina Strain FS-273 and E. tenella Strain FS-456; assay: anticoccidial feed test in infected chickens, ionophore-resistant strains; format: in vivo
# [13] = test system: Enterobacter aerogenes C32; format: cell-based; details: Klebsiella aerogenes, C32, 24 h
# [14] = test system: Haemophilus influenzae 76; format: cell-based; details: Haemophilus influenzae, 76, 24 h
# [15] = test system: Peptostreptococcus anaerobius 1451; format: cell-based; details: Peptostreptococcus anaerobius, 1451, 24 h
# [16] = test system: Eimeria acervulina Strain FS-316 And E. tenella Strain FS-456; assay: anticoccidial feed test in infected chickens, ionophore-resistant strains; format: in vivo
# Peptococcus prevoti 1281 = format: cell-based; details: 24 h
# [17] = test system: Eubacterium aerofaciens 1235; format: cell-based; details: Collinsella aerofaciens, 1235, 24 h
# [18] = test system: Staphylococcus epidermidis 222; format: cell-based; details: Staphylococcus epidermidis, 222, 24 h
compound,measurement,setting,value
CC[C@@H](O)[C@]1(C)C[C@H](C)[C@@](O)([C@H]2C[C@H](C)[C@H]([C@]3(C)C[C@@H](O[C@H]4CC[C@H](OC)[C@@H](C)O4)[C@H]([C@]4(C)CC[C@@]5(O[C@H]([C@@H](C)[C@@H](OC)[C@H](C)C(=O)O)[C@H](C)[C@@H](OC)[C@H]5C)O4)O3)O2)O1 [Example A82810],MIC,[1],> 128 µg/mL
same,MIC,[2],0.5 µg/mL
same,MIC,[3],0.25 µg/mL
same,active at levels as low as,blowfly larvae,100 ppm
same,active at levels as low as,southern armyworm,100 ppm
same,active at levels as low as,spider mite,100 ppm
same,active at levels as low as,adult stablefly,50 ppm
same,MIC,[4],2 µg/mL
same,MIC,[5],1 µg/mL
same,MIC,[6],8 µg/mL
same,MIC,Bacteroides fragilis 111,8 µg/mL
same,MIC,[7],0.5 µg/mL
same,MIC,[8],≤ 0.25 µg/mL
same,MIC,[9],0.25 µg/mL
same,MIC,[10],1 µg/mL
same,"WEIGHT GAIN, PERCENT OF CONTROL",[11]; A82810 1.25 ppm,98% OF CONTROL
same,"WEIGHT GAIN, PERCENT OF CONTROL",[11]; A82810 1.5 ppm,101% OF CONTROL
same,"WEIGHT GAIN, PERCENT OF CONTROL",[11]; A82810 1.75 ppm,105% OF CONTROL
same,"WEIGHT GAIN, PERCENT OF CONTROL",[11]; A82810 2.0 ppm,99% OF CONTROL
same,LESION SCORE,[12]; 2 ppm,7.2
same,PERCENT REDUCTION IN OOCYST PRODUCTION,[12]; 2 ppm,22%
same,"WEIGHT GAIN, PERCENT OF CONTROL",[12]; 2 ppm,68% OF CONTROL
same,LESION SCORE,[12]; 6 ppm,3.7
same,PERCENT REDUCTION IN OOCYST PRODUCTION,[12]; 6 ppm,65%
same,"WEIGHT GAIN, PERCENT OF CONTROL",[12]; 6 ppm,89% OF CONTROL
same,LESION SCORE,[12]; 10 ppm,2.0
same,PERCENT REDUCTION IN OOCYST PRODUCTION,[12]; 10 ppm,83%
same,"WEIGHT GAIN, PERCENT OF CONTROL",[12]; 10 ppm,86% OF CONTROL
same,MIC,[13],8 µg/mL
same,MIC,[14],64 µg/mL
same,MIC,[15],≤ 0.25 µg/mL
same,TOTAL LESION SCORE,[16]; 0.5 ppm,8.7
same,"WEIGHT GAIN, PERCENT OF CONTROL",[16]; 0.5 ppm,87% OF CONTROL
same,TOTAL LESION SCORE,[16]; 1 ppm,9.3
same,"WEIGHT GAIN, PERCENT OF CONTROL",[16]; 1 ppm,89% OF CONTROL
same,TOTAL LESION SCORE,[16]; 1.5 ppm,7.7
same,"WEIGHT GAIN, PERCENT OF CONTROL",[16]; 1.5 ppm,95% OF CONTROL
same,TOTAL LESION SCORE,[16]; 2 ppm,9.6
same,"WEIGHT GAIN, PERCENT OF CONTROL",[16]; 2 ppm,93% OF CONTROL
same,AVERAGE CECAL LESION SCORES,[16]; 2.5 ppm,3.2
same,AVERAGE INTESTINAL LESION SCORES,[16]; 2.5 ppm,2.3
same,"WEIGHT GAIN, PERCENT OF CONTROL",[16]; 2.5 ppm,81% OF CONTROL
same,AVERAGE CECAL LESION SCORES,[16]; 3 ppm,2.9
same,AVERAGE INTESTINAL LESION SCORES,[16]; 3 ppm,3.3
same,"WEIGHT GAIN, PERCENT OF CONTROL",[16]; 3 ppm,77% OF CONTROL
same,AVERAGE CECAL LESION SCORES,[16]; 3.5 ppm,3.2
same,AVERAGE INTESTINAL LESION SCORES,[16]; 3.5 ppm,3.0
same,"WEIGHT GAIN, PERCENT OF CONTROL",[16]; 3.5 ppm,85% OF CONTROL
same,AVERAGE CECAL LESION SCORES,[16]; 5 ppm,2.3
same,AVERAGE INTESTINAL LESION SCORES,[16]; 5 ppm,1.3
same,"WEIGHT GAIN, PERCENT OF CONTROL",[16]; 5 ppm,95% OF CONTROL
same,AVERAGE CECAL LESION SCORES,[16]; 6 ppm,3.2
same,AVERAGE INTESTINAL LESION SCORES,[16]; 6 ppm,1.7
same,"WEIGHT GAIN, PERCENT OF CONTROL",[16]; 6 ppm,98% OF CONTROL
same,MIC,Peptococcus prevoti 1281,≤ 0.25 µg/mL
same,MIC,[17],≤ 0.25 µg/mL
same,MIC,[18],0.5 µg/mL

# Source: EP0341019A2, “Polyether antibiotic” (priority 1988, dated 1989)
